{
  "source": "the NIST ThermoML archive (doi:10.1016/j.fluid.2017.03.015)",
  "note": "Numbers after ± are expanded uncertainties.",
  "data": [
    {"details": "Crystal; visual observation", "units": {"Normal melting temperature": "°C"}, "values": [
      {"molecule": "C[n+]1ccn(CCO)c1.[Cl-]", "note": "[1-(2-hydroxyethyl)-3-methyl-1H-imidazolium chloride]", "Normal melting temperature": "85.73 ± 0.41"},
      {"molecule": "CCCC[N+]1(C)CCCC1.[Cl-]", "note": "[1-butyl-1-methylpyrrolidinium chloride]", "Normal melting temperature": "199.83 ± 0.41"},
      {"molecule": "CCn1cc[n+](C)c1.[Cl-]", "note": "[1-ethyl-3-methylimidazolium chloride]", "Normal melting temperature": "77.27 ± 0.41"},
      {"molecule": "CCCCCCCCC(C[N+](C)(C)Cc1ccccc1)C(C)O.[Cl-]", "note": "(stereo not given) [benzyldimethyl-2-(1-hydroxyethyl)decylammonium chloride]", "Normal melting temperature": "78.27 ± 0.41"},
      {"molecule": "CC(=O)[O-].C[N+](C)(C)CCO", "note": "[choline acetate]", "Normal melting temperature": "89.47 ± 0.41"},
      {"molecule": "C[N+](C)(C)CCO.O=S(=O)([N-]S(=O)(=O)C(F)(F)F)C(F)(F)F", "note": "[choline bis(trifluoromethylsulfonyl)imide]", "Normal melting temperature": "32.50 ± 0.41"},
      {"molecule": "CCCC(=O)[O-].C[N+](C)(C)CCO", "note": "[choline butanoate]", "Normal melting temperature": "42.83 ± 0.41"},
      {"molecule": "CCC(=O)[O-].C[N+](C)(C)CCO", "note": "[cholinium propanoate]", "Normal melting temperature": "9.42 ± 0.41"},
      {"molecule": "CCCC[N+](CCCC)(CCCC)CCCC.[Cl-]", "note": "[tetrabutylammonium chloride]", "Normal melting temperature": "69.67 ± 0.41"},
      {"molecule": "CCCC[P+](CCCC)(CCCC)CCCC.[Cl-]", "note": "[tetrabutylphosphonium chloride]", "Normal melting temperature": "66.31 ± 0.41"}
    ]}
  ]
}
